# From EP1561465A2, “Methods of use of fluoroquinolone compounds against bacteria” (LG Life Sciences, Ltd., priority 1999, dated 2001)
# Like-named read-outs stand apart in the source and are kept apart here.
# Assays:
# Assay type in all cases: cell-based
# Streptococcus pneumoniae [1] = assay: MIC by agar dilution (NCCLS), 411 isolates Buenos Aires 1998-99; conditions: Streptococcus pneumoniae, S. pneumoniae, read-out: MIC90
# Streptococcus pneumoniae [2] = assay: MIC by NCCLS reference broth microdilution, 450 respiratory tract pathogens; conditions: Streptococcus pneumoniae
# Streptococcus pyogenes = assay: as above; conditions: Streptococcus pyogenes
# Haemophilus influenzae = assay: as above
# Moraxella catarrhalis = assay: as above
# Staphylococcus aureus = assay: as above
# Klebsiella pneumoniae = assay: as above; conditions: for MIC50 / MIC90: Klebsiella pneumoniae
# [3] = Streptococcus pneumoniae (n = 100)
# [4] = erythromycin resistant M phenotype (n = 16)
# [5] = erythromycin resistant MLSB phenotype (n = 16)
# [6] = penicillin intermediate (n = 16)
# [7] = penicillin susceptible (n = 20)
# [8] = Streptococcus pyogenes (n = 100)
# [9] = erythromycin resistant C phenotype [MLSB] (n = 20)
# [10] = erythromycin resistant I phenotype [MLSB] (n = 20)
# [11] = erythromycin resistant M phenotype (n = 20)
# [12] = Haemophilus influenzae, Haemophilus influenzae (n = 100)
# [13] = Haemophilus influenzae, Haemophilus influenzae (n = 100), read-out: MIC90
# [14] = Haemophilus influenzae, β-lactamase negative (n = 80)
# [15] = Haemophilus influenzae, β-lactamase negative (n = 80), read-out: MIC90
# [16] = Haemophilus influenzae, β-lactamase positive (n = 20)
# [17] = Haemophilus influenzae, β-lactamase positive (n = 20), read-out: MIC90
# [18] = β-lactamase positive and erythromycin resistant (n = 10)
# [19] = extended spectrum β-lactamase negative (n = 30)
# [20] = extended spectrum β-lactamase positive (n = 20)
structure (smiles),measurement,setting,value
"CO/N=C(\C(=O)N[C@@H]1C(=O)N2C(C(=O)O)=C(CSc3nc(=O)c(=O)[nH]n3C)CS[C@H]12)c1csc(N)n1 [Ceftriaxone, ceftriaxone]",MIC90,Streptococcus pneumoniae [1]; Penicillin intermediate (n = 17),1 µg/mL
same,MIC90,Streptococcus pneumoniae [1]; Penicillin resistant (n = 4),1 µg/mL
same,MIC90,Streptococcus pneumoniae [1]; Penicillin susceptible (n = 69),0.016 µg/mL
"NC1CCN(c2c(F)cc3c(=O)c(C(=O)O)cn(C4CC4)c3c2Cl)C1 (stereo not shown) [Clinafloxacin, clinafloxacin]",MIC,Streptococcus pneumoniae [2]; [3],0.03 to 0.25 µg/mL
same,MIC50,Streptococcus pneumoniae [2]; [3],0.06 µg/mL
same,MIC90,Streptococcus pneumoniae [2]; [3],0.12 µg/mL
same,MIC,Streptococcus pneumoniae [2]; [4],0.03 to 0.12 µg/mL
same,MIC50,Streptococcus pneumoniae [2]; [4],0.06 µg/mL
same,MIC90,Streptococcus pneumoniae [2]; [4],0.12 µg/mL
same,MIC,Streptococcus pneumoniae [2]; [5],0.03 to 0.12 µg/mL
same,MIC50,Streptococcus pneumoniae [2]; [5],0.06 µg/mL
same,MIC90,Streptococcus pneumoniae [2]; [5],0.12 µg/mL
same,MIC,Streptococcus pneumoniae [2]; multi-drug resistant (n = 16),0.06 to 0.12 µg/mL
same,MIC50,Streptococcus pneumoniae [2]; multi-drug resistant (n = 16),0.12 µg/mL
same,MIC90,Streptococcus pneumoniae [2]; multi-drug resistant (n = 16),0.12 µg/mL
same,MIC,Streptococcus pneumoniae [2]; [6],0.06 to 0.12 µg/mL
same,MIC50,Streptococcus pneumoniae [2]; [6],0.12 µg/mL
same,MIC90,Streptococcus pneumoniae [2]; [6],0.12 µg/mL
same,MIC,Streptococcus pneumoniae [2]; penicillin resistant (n = 18),0.06 to 0.25 µg/mL
same,MIC50,Streptococcus pneumoniae [2]; penicillin resistant (n = 18),0.12 µg/mL
same,MIC90,Streptococcus pneumoniae [2]; penicillin resistant (n = 18),0.25 µg/mL
same,MIC,Streptococcus pneumoniae [2]; [7],0.015 to 0.12 µg/mL
same,MIC50,Streptococcus pneumoniae [2]; [7],0.06 µg/mL
same,MIC90,Streptococcus pneumoniae [2]; [7],0.12 µg/mL
same,MIC,Streptococcus pyogenes; [8],0.015 to 0.12 µg/mL
same,MIC50,Streptococcus pyogenes; [8],0.06 µg/mL
same,MIC90,Streptococcus pyogenes; [8],0.06 µg/mL
same,MIC,Streptococcus pyogenes; [9],0.03 to 0.12 µg/mL
same,MIC50,Streptococcus pyogenes; [9],0.06 µg/mL
same,MIC90,Streptococcus pyogenes; [9],0.12 µg/mL
same,MIC,Streptococcus pyogenes; [10],0.03 to 0.06 µg/mL
same,MIC50,Streptococcus pyogenes; [10],0.06 µg/mL
same,MIC90,Streptococcus pyogenes; [10],0.06 µg/mL
same,MIC,Streptococcus pyogenes; [11],0.015 to 0.06 µg/mL
same,MIC50,Streptococcus pyogenes; [11],0.03 µg/mL
same,MIC90,Streptococcus pyogenes; [11],0.06 µg/mL
same,MIC,Streptococcus pyogenes; fully susceptible (n = 20),0.03 to 0.12 µg/mL
same,MIC50,Streptococcus pyogenes; fully susceptible (n = 20),0.03 µg/mL
same,MIC90,Streptococcus pyogenes; fully susceptible (n = 20),0.06 µg/mL
same,MIC,Streptococcus pyogenes; multi-drug resistant (n = 20),0.03 to 0.06 µg/mL
same,MIC50,Streptococcus pyogenes; multi-drug resistant (n = 20),0.03 µg/mL
same,MIC90,Streptococcus pyogenes; multi-drug resistant (n = 20),0.06 µg/mL
same,MIC90,Haemophilus influenzae; Haemophilus influenzae (n = 100),≤0.00075 µg/mL
same,MIC,Haemophilus influenzae; [12],0.0075 to 0.06 µg/mL
same,MIC50,Haemophilus influenzae; [12],≤ 0.00075 µg/mL
same,MIC90,Haemophilus influenzae; [13],≤ 0.00075 µg/mL
same,MIC,Haemophilus influenzae; [14],0.0075 to 0.06 µg/mL
same,MIC50,Haemophilus influenzae; [14],≤ 0.0075 µg/mL
same,MIC90,Haemophilus influenzae; [15],≤ 0.0075 µg/mL
same,MIC,Haemophilus influenzae; [16],0.0075 to 0.25 µg/mL
same,MIC50,Haemophilus influenzae; [16],≤ 0.0075 µg/mL
same,MIC90,Haemophilus influenzae; [17],≤ 0.0075 µg/mL
same,MIC,Moraxella catarrhalis; Moraxella catarrhalis (n = 50),0.00375 to 0.015 µg/mL
same,MIC50,Moraxella catarrhalis; Moraxella catarrhalis (n = 50),≤ 0.00375 µg/mL
same,MIC90,Moraxella catarrhalis; Moraxella catarrhalis (n = 50),0.015 µg/mL
same,MIC,Moraxella catarrhalis; β-lactamase negative (n = 13),0.00375 to 0.015 µg/mL
same,MIC50,Moraxella catarrhalis; β-lactamase negative (n = 13),≤ 0.00375 µg/mL
same,MIC90,Moraxella catarrhalis; β-lactamase negative (n = 13),0.015 µg/mL
same,MIC,Moraxella catarrhalis; β-lactamase positive (n = 37),0.00375 to 0.015 µg/mL
same,MIC50,Moraxella catarrhalis; β-lactamase positive (n = 37),≤ 0.00375 µg/mL
same,MIC90,Moraxella catarrhalis; β-lactamase positive (n = 37),0.015 µg/mL
same,MIC,Staphylococcus aureus; Staphylococcus aureus (n = 50),0.06 to 0.25 µg/mL
same,MIC50,Staphylococcus aureus; Staphylococcus aureus (n = 50),0.12 µg/mL
same,MIC90,Staphylococcus aureus; Staphylococcus aureus (n = 50),0.25 µg/mL
same,MIC,Staphylococcus aureus; β-lactamase negative (n = 20),0.06 to 0.25 µg/mL
same,MIC50,Staphylococcus aureus; β-lactamase negative (n = 20),0.12 µg/mL
same,MIC90,Staphylococcus aureus; β-lactamase negative (n = 20),0.25 µg/mL
same,MIC,Staphylococcus aureus; β-lactamase positive (n = 20),0.06 to 0.25 µg/mL
same,MIC50,Staphylococcus aureus; β-lactamase positive (n = 20),0.12 µg/mL
same,MIC90,Staphylococcus aureus; β-lactamase positive (n = 20),0.25 µg/mL
same,MIC,Staphylococcus aureus; [18],0.06 to 0.25 µg/mL
same,MIC50,Staphylococcus aureus; [18],0.12 µg/mL
same,MIC90,Staphylococcus aureus; [18],0.25 µg/mL
same,MIC Range,Klebsiella pneumoniae; Klebsiella pneumoniae (n = 50),≤0.0075 to 1 µg/mL
same,MIC50,Klebsiella pneumoniae; Klebsiella pneumoniae (n = 50),0.015 µg/mL
same,MIC90,Klebsiella pneumoniae; Klebsiella pneumoniae (n = 50),1 µg/mL
same,MIC50,Klebsiella pneumoniae; [19],≤ 0.0075 µg/mL
same,MIC90,Klebsiella pneumoniae; [19],0.015 µg/mL
same,MIC50,Klebsiella pneumoniae; [20],≤ 0.0075 µg/mL
same,MIC90,Klebsiella pneumoniae; [20],1 µg/mL
same,MIC Range,Klebsiella pneumoniae; [19],≤0.0075 to 0.12 µg/mL
same,MIC Range,Klebsiella pneumoniae; [20],≤0.0075 to 1 µg/mL
"COc1c(N2C[C@@H]3CCCN[C@@H]3C2)c(F)cc2c(=O)c(C(=O)O)cn(C3CC3)c12 [Moxifloxacin, moxifloxacin]",MIC,Haemophilus influenzae; [12],0.0075 to 0.12 µg/mL
same,MIC50,Haemophilus influenzae; [12],0.03 µg/mL
same,MIC90,Haemophilus influenzae; [13],0.06 µg/mL
same,MIC,Haemophilus influenzae; [14],0.0075 to 0.06 µg/mL
same,MIC50,Haemophilus influenzae; [14],0.03 µg/mL
same,MIC90,Haemophilus influenzae; [15],0.06 µg/mL
same,MIC,Haemophilus influenzae; [16],0.0075 to 0.06 µg/mL
same,MIC50,Haemophilus influenzae; [16],0.015 µg/mL
same,MIC90,Haemophilus influenzae; [17],0.015 µg/mL
same,MIC,Moraxella catarrhalis; Moraxella catarrhalis (n = 50),0.00375 to 0.12 µg/mL
same,MIC50,Moraxella catarrhalis; Moraxella catarrhalis (n = 50),0.06 µg/mL
same,MIC90,Moraxella catarrhalis; Moraxella catarrhalis (n = 50),0.06 µg/mL
same,MIC,Moraxella catarrhalis; β-lactamase negative (n = 13),0.00375 to 0.12 µg/mL
same,MIC50,Moraxella catarrhalis; β-lactamase negative (n = 13),0.015 µg/mL
same,MIC90,Moraxella catarrhalis; β-lactamase negative (n = 13),0.06 µg/mL
same,MIC,Moraxella catarrhalis; β-lactamase positive (n = 37),0.00375 to 0.12 µg/mL
same,MIC50,Moraxella catarrhalis; β-lactamase positive (n = 37),0.03 µg/mL
same,MIC90,Moraxella catarrhalis; β-lactamase positive (n = 37),0.06 µg/mL
same,MIC,Staphylococcus aureus; Staphylococcus aureus (n = 50),0.015 to 0.5 µg/mL
same,MIC50,Staphylococcus aureus; Staphylococcus aureus (n = 50),0.25 µg/mL
same,MIC90,Staphylococcus aureus; Staphylococcus aureus (n = 50),0.5 µg/mL
same,MIC,Staphylococcus aureus; β-lactamase negative (n = 20),0.06 to 0.5 µg/mL
same,MIC50,Staphylococcus aureus; β-lactamase negative (n = 20),0.25 µg/mL
same,MIC90,Staphylococcus aureus; β-lactamase negative (n = 20),0.5 µg/mL
same,MIC,Staphylococcus aureus; β-lactamase positive (n = 20),0.12 to 0.5 µg/mL
same,MIC50,Staphylococcus aureus; β-lactamase positive (n = 20),0.25 µg/mL
same,MIC90,Staphylococcus aureus; β-lactamase positive (n = 20),0.5 µg/mL
same,MIC,Staphylococcus aureus; [18],0.12 to 0.5 µg/mL
same,MIC50,Staphylococcus aureus; [18],0.25 µg/mL
same,MIC90,Staphylococcus aureus; [18],0.5 µg/mL
same,MIC Range,Klebsiella pneumoniae; Klebsiella pneumoniae (n = 50),0.015 to 1 µg/mL
same,MIC50,Klebsiella pneumoniae; Klebsiella pneumoniae (n = 50),0.06 µg/mL
same,MIC90,Klebsiella pneumoniae; Klebsiella pneumoniae (n = 50),0.5 µg/mL
same,MIC50,Klebsiella pneumoniae; [19],0.06 µg/mL
same,MIC90,Klebsiella pneumoniae; [19],0.25 µg/mL
same,MIC50,Klebsiella pneumoniae; [20],0.5 µg/mL
same,MIC90,Klebsiella pneumoniae; [20],1 µg/mL
same,MIC Range,Klebsiella pneumoniae; [19],0.015 to 0.5 µg/mL
same,MIC Range,Klebsiella pneumoniae; [20],0.06 to 1 µg/mL
